These results are taken from patent publication US11904054B2, “Compositions and methods for delivering pharmaceutical agents” (Arizona Board of Regents on Behalf of the University of …, priority 2018, dated 2024).

The nature of data set [1]: Residual water content by Karl Fischer titration. In kind it is physicochemical. The following applies: Karl Fisher Titration, n = 3, Mean ± SD. An excerpt:
(§1) Using conditions similar to previously reported (Li, X., et al., J Aerosol Med Pulm Drug Deliv, 2014. 27(2): p. 81-93; Li, X., et al., European Journal of Pharmaceutical Sciences, 2014. 52: p. 191-205; Meenach, S. A., et al., AAPS PharmSciTech, 2014. 15(6): p. 1574-87; Li, X., et al., Pharm Sci, 2014. 103(9): p. 2937-49; Meenach, S. A., et al., European Journal of Pharmaceutical Sciences, 2013. 49(4): p. 699-797; Muralidharan, P., et al., The Royal Society of Chemistry(RSC): Molecular Systems Design & Engineering, 2016: p. 1-18), the residual water content of all SD and Co-SD powders were quantified analytically by Karl Fischer titration (KFT) coulometrically using a TitroLine 7500 trace titrator (SI Analytics, Germany).
Approximately 2-10 mg of powder was added to the titration cell containing Hydranal® Coulomat AD reagent. The residual water content was then calculated.

The next data set deals with MCT rats. Briefly: PH development in MCT rats. Format: in vivo.
The nature of data set [2]: Particle sizing and size distribution by image analysis of SEM micrographs. Format: physicochemical.
Source text: as §1, with “visual imaging and analysis” for “the residual water content”, “particle size, morphology,” for “all SD”, “surface morphology” for “Co-SD powders”, “achieved” for “quantified analytically”, “scanning electron microscopy (SEM)” for “Karl Fischer titration (KFT) coulometrically”, “FEI Inspect S microscope (FBI, Brno, Czech republic). […]” for “TitroLine 7500 trace titrator (SI Analytics, Germany).”
The mean size, standard deviation, and size range were determined using SigmaScan™ Pro 5.0.0 (Systat, Inc., San Jose, Calif.) based on their scanning electron micrographs using a similar procedure that we have previously reported (Muralidharan et al., supra; Meenach, S. A., et al., AAPS PharmSciTech, 2014. 15(6): p. 1574-87). Representative micrographs for each particle sample at 3000× magnification was analyzed by measuring the diameter of at least 100 particles per sample.

In the case of `OC[C@@H](O)[C@@H](O)[C@H](O)[C@H](O)CO` [Raw Man, D-mannitol], the Water content in data set [1] was 0.3 ± 0.13 % (w/w).

As for `C[N+](C)(C)C[C@H](O)CC(=O)[O-]` [Raw L-Car, L-Carnitine], in data set [1], the Water content was 2.68 ± 0.8 % (w/w). In the data set on MCT rats, the PH development entry is “attenuates PH development”. Further, the “Particle size, Range” value in data set [2] (n = 100) was 298.38-1810.57 μm. For the same compound, the “Particle size, Mean” value in data set [2] (n = 100, Mean ± SD) stood at 659.05 ± 235.82 μm.
